Legend:
BRD4-BD2 = biological target: T1, BRD4-BD2 (Homo sapiens, UniProt O60885); assay: Binding affinity to BRD4-BD2 (bromoKdELECT assay); conditions: 11-point 3-fold dilution series
T1 construct: made in house; host or cells: T7 phage grown in an E. coli host derived from the BL21 strain

T47D cells = assay: Cellular Growth Inhibition Assay for T47D Cells (CellTiter-Glo); format: cell-based, human; conditions: 72 hours
Procedure, shortened: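 GI50 values derive from four-parameter regression of CellTiter-Glo 2.0 luminescence, using zero luminescence as baseline. Human breast cancer T47D cells (3000/well; DMEM, 10% FBS, 0.2 units/mL insulin) were exposed for 72 h to compound dilutions at 0.5% DMSO, with dosing starting 24 h after seeding.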

Work on Cn1cc(-c2ccccc2Oc2cccc(N3CC(N4CCN(c5ncc(C(=O)N[C@H]6C(C)(C)[C@H](Oc7ccc(C#N)c(Cl)c7)C6(C)C)cn5)CC4)C3)c2)c2cc[nH]c2c1=O [Compound I-90, N-((1r, 3r)-3-(3-chloro-4-cyanophenoxy)-2,2,4,4-tetramethylcyclobutyl)-2-(4-(1-(3-(2-(6-methyl-7-oxo-6,7-dihydro-1H-pyrrolo[2,3-c]pyridin-4-yl)phenoxy)phenyl)azetidin-3-yl)piperazin-1-yl)pyrimidine-5-carboxamide] yielded a Kd (BRD4-BD2) of over 2500 nM and a GI50 (T47D cells; Homo sapiens) of 500 to 1500 nM.

For Cn1cc(-c2ccccc2Oc2cccc(N3CC(N4CCN(c5ncc(C(=O)N[C@H]6C(C)(C)[C@H](Oc7ccc(C#N)c(Cl)c7)C6(C)C)cn5)CC4)C3)c2F)c2cc[nH]c2c1=O [Compound I-94], the Kd (BRD4-BD2) was 50 to 500 nM and the GI50 (T47D cells; Homo sapiens) was 500 to 1500 nM.

Cn1cc(-c2ccccc2Oc2cccc(OCCN3CCN(c4ncc(C(=O)N[C@H]5C(C)(C)[C@H](Oc6ccc(C#N)c(Cl)c6)C5(C)C)cn4)CC3)c2)c2cc[nH]c2c1=O [Compound I-98] showed a Kd (BRD4-BD2) of over 2500 nM and a GI50 (T47D cells; Homo sapiens) of under 500 nM.

Work on Cn1cc(-c2cc(C(C)(C)O)ccc2Oc2cccc(CCCN3CCN(c4ncc(C(=O)N[C@H]5C(C)(C)[C@H](Oc6ccc(C#N)c(Cl)c6)C5(C)C)cn4)CC3)c2)c2cc[nH]c2c1=O [Compound I-110] yielded a Kd (BRD4-BD2) of under 50 nM and a GI50 (T47D cells; Homo sapiens) of under 500 nM.

Work on Cn1cc(-c2cc(C(C)(C)O)ccc2Oc2cccc(N3CC(N4CCN(c5ncc(C(=O)N[C@H]6C(C)(C)[C@H](Oc7ccc(C#N)c(Cl)c7)C6(C)C)cn5)CC4)C3)c2)c2cc[nH]c2c1=O [Compound I-105] yielded a Kd (BRD4-BD2) of under 50 nM and a GI50 (T47D cells; Homo sapiens) of 500 to 1500 nM.

CCS(=O)(=O)Nc1ccc(Oc2ccc(OCC3CCN(c4ncc(C(=O)N[C@H]5C(C)(C)[C@H](Oc6ccc(C#N)c(Cl)c6)C5(C)C)cn4)CC3)cc2)c(-c2cn(C)c(=O)c3[nH]ccc23)c1 [Compound I-138] was tested, and the Kd (BRD4-BD2) was 500 to 2500 nM and the GI50 (T47D cells) was under 500 nM.

For Cn1cc(-c2cc(C(C)(C)O)ccc2Oc2cccc(N3CC(N4CCN(c5ncc(C(=O)N[C@H]6C(C)(C)[C@H](Oc7ccc(C#N)c(Cl)c7)C6(C)C)cn5)CC4)C3)c2F)c2cc[nH]c2c1=O [Compound I-92, N-((1r, 3r)-3-(3-chloro-4-cyanophenoxy)-2,2,4,4-tetramethylcyclobutyl)-2-(4-(1-(2-fluoro-3-(4-(2-hydroxypropan-2-yl)-2-(6-methyl-7-oxo-6,7-dihydro-1H-pyrrolo[2,3-c]pyridin-4-yl)phenoxy)phenyl)azetidin-3-yl)piperazin-1-yl)pyrimidine-5-carboxamide], the Kd (BRD4-BD2) was 50 to 500 nM and the GI50 (T47D cells; Homo sapiens) was under 500 nM.

For CCS(=O)(=O)Nc1ccc(Oc2cccc(N3CCN(C4CN(c5ncc(C(=O)N[C@H]6C(C)(C)[C@H](Oc7ccc(C#N)c(Cl)c7)C6(C)C)cn5)C4)CC3)c2)c(-c2cn(C)c(=O)c3[nH]ccc23)c1 [Compound I-126], the Kd (BRD4-BD2) was under 50 nM and the GI50 (T47D cells; Homo sapiens) was under 500 nM.

Cn1cc(-c2cc(C(C)(C)O)ccc2Oc2cccc(CCCN3CCN(c4ncc(C(=O)N[C@H]5C(C)(C)[C@H](Oc6ccc(C#N)c(Cl)c6)C5(C)C)cn4)CC3)c2F)c2cc[nH]c2c1=O [Compound I-143] was tested, and the Kd (BRD4-BD2) was under 50 nM and the GI50 (T47D cells; Homo sapiens) was 500 to 1500 nM.

CC(C)N(CC1CCN(c2ncc(C(=O)N[C@H]3C(C)(C)[C@H](Oc4ccc(C#N)c(Cl)c4)C3(C)C)cn2)CC1)[C@H]1C[C@H](Oc2cccc(Oc3ccc(C(C)(C)O)cc3-c3cn(C)c(=O)c4[nH]ccc34)c2F)C1 [Compound I-214] was tested, and the Kd (BRD4-BD2) was under 50 nM and the GI50 (T47D cells; Homo sapiens) was under 500 nM.

In the case of Cn1cc(-c2cc(C(C)(C)O)ccc2Oc2cccc(OCCC3CCN(c4ncc(C(=O)N[C@H]5C(C)(C)[C@H](Oc6ccc(C#N)c(Cl)c6)C5(C)C)cn4)CC3)c2)c2cc[nH]c2c1=O [Compound I-156], the Kd (BRD4-BD2) is reported as 50 to 500 nM and the GI50 (T47D cells) is reported as 500 to 1500 nM.

Work on Cn1cc(-c2cc(C(C)(C)O)ccc2Oc2cccc(OCCOC3CCN(c4ncc(C(=O)N[C@H]5C(C)(C)[C@H](Oc6ccc(C#N)c(Cl)c6)C5(C)C)cn4)CC3)c2)c2cc[nH]c2c1=O [Compound I-56, N-((1r, 3r)-3-(3-chloro-4-cyanophenoxy)-2,2,4,4-tetramethylcyclobutyl)-2-(4-(2-(3-(4-(2-hydroxypropan-2-yl)-2-(6-methyl-7-oxo-6,7-dihydro-1H-pyrrolo[2,3-c]pyridin-4-yl)phenoxy)phenoxy)ethoxy)piperidin-1-yl)pyrimidine-5-carboxamide] yielded a Kd (BRD4-BD2) of 50 to 500 nM and a GI50 (T47D cells; Homo sapiens) of under 500 nM.

In the case of Cn1cc(-c2cc(C(C)(C)O)ccc2Oc2cccc(N3CC(OC4CCN(c5ncc(C(=O)N[C@H]6C(C)(C)[C@H](Oc7ccc(C#N)c(Cl)c7)C6(C)C)cn5)CC4)C3)c2F)c2cc[nH]c2c1=O [Compound I-190], the Kd (BRD4-BD2) is reported as 50 to 500 nM and the GI50 (T47D cells) is reported as 500 to 1500 nM.

With CCS(=O)(=O)Cc1ccc(Oc2cccc(OCCOC3CCN(c4ncc(C(=O)N[C@H]5C(C)(C)[C@H](Oc6ccc(C#N)c(Cl)c6)C5(C)C)cn4)CC3)c2)c(-c2cn(C)c(=O)c3[nH]ccc23)c1 [Compound I-54, N-((1r, 3r)-3-(3-chloro-4-cyanophenoxy)-2,2,4,4-tetramethylcyclobutyl)-2-(4-(2-(3-(4-((ethylsulfonyl)methyl)-2-(6-methyl-7-oxo-6,7-dihydro-1H-pyrrolo[2,3-c]pyridin-4-yl)phenoxy)phenoxy)ethoxy)piperidin-1-yl)pyrimidine-5-carboxamide] the Kd (BRD4-BD2) was 50 to 500 nM and the GI50 (T47D cells; Homo sapiens) was under 500 nM.

Cc1ccc(CCCOC2CCN(c3ncc(C(=O)N[C@H]4C(C)(C)[C@H](Oc5ccc(C#N)c(Cl)c5)C4(C)C)cn3)CC2)c(C)c1Oc1ccc(C(C)(C)O)cc1-c1cn(C)c(=O)c2[nH]ccc12 [Compound I-195] was tested, and the Kd (BRD4-BD2) was over 2500 nM and the GI50 (T47D cells; Homo sapiens) was 500 to 1500 nM.

Molecule CCS(=O)(=O)c1ccc(OCC(CCCN2CCN(c3ncc(C(=O)NC4C(C)(C)C(Oc5ccc(C#N)c(Cl)c5)C4(C)C)cn3)CC2)C2CC2)c(-c2cn(C)c(=O)c3[nH]ccc23)c1 (centres unmarked) [Compound I-231, N-[3-(3-chloro-4-cyano-phenoxy)-2,2,4,4-tetramethyl-cyclobutyl]-2-[4-[4-cyclopropyl-5-[4-ethylsulfonyl-2-(6-methyl-7-oxo-1H-pyrrolo[2,3-c]pyridin-4-yl)phenoxy]pentyl]piperazin-1-yl]pyrimidine-5-carboxamide] has a Kd (BRD4-BD2) of under 50 nM and a GI50 (T47D cells; Homo sapiens) of under 500 nM.

Work on Cn1cc(-c2cc(C(C)(C)O)ccc2Oc2ccc(CCOC3CCN(c4ncc(C(=O)N[C@H]5C(C)(C)[C@H](Oc6ccc(C#N)c(Cl)c6)C5(C)C)cn4)CC3)cc2)c2cc[nH]c2c1=O [Compound I-194] yielded a Kd (BRD4-BD2) of under 50 nM and a GI50 (T47D cells; Homo sapiens) of 500 to 1500 nM.

Cn1cc(-c2cc(C(C)(C)O)ccc2Oc2ccc(CCC3CCN(c4ncc(C(=O)N[C@H]5C(C)(C)[C@H](Oc6ccc(C#N)c(Cl)c6)C5(C)C)cn4)CC3)cc2)c2cc[nH]c2c1=O [Compound I-203] was tested, and the Kd (BRD4-BD2) was over 2500 nM and the GI50 (T47D cells; Homo sapiens) was 500 to 1500 nM.

CN(CCCc1ccc(Oc2ccc(C(C)(C)O)cc2-c2cn(C)c(=O)c3[nH]ccc23)cc1)c1ncc(C(=O)N[C@H]2C(C)(C)[C@H](Oc3ccc(C#N)c(Cl)c3)C2(C)C)cn1 [Compound I-211] gave a Kd (BRD4-BD2) of 50 to 500 nM and a GI50 (T47D cells; Homo sapiens) of under 500 nM.

With Cn1cc(-c2cc(C(C)(C)O)ccc2Oc2cccc(CCOC3CCN(c4ncc(C(=O)N[C@H]5C(C)(C)[C@H](Oc6ccc(C#N)c(Cl)c6)C5(C)C)cn4)CC3)c2F)c2cc[nH]c2c1=O [Compound I-147] the Kd (BRD4-BD2) was under 50 nM and the GI50 (T47D cells) was under 500 nM.

Molecule Cn1cc(-c2cc(C(C)(C)O)ccc2Oc2cccc(OCCC3CCN(c4ncc(C(=O)N[C@H]5C(C)(C)[C@H](Oc6ccc(C#N)c(Cl)c6)C5(C)C)cn4)CC3)c2F)c2cc[nH]c2c1=O [Compound I-142] has a Kd (BRD4-BD2) of 500 to 2500 nM and a GI50 (T47D cells; Homo sapiens) of 500 to 1500 nM.

Cn1cc(-c2cc(N)ccc2Oc2cccc(OCCOC3CCN(c4ncc(C(=O)N[C@H]5C(C)(C)[C@H](Oc6ccc(C#N)c(Cl)c6)C5(C)C)cn4)CC3)c2)c2cc[nH]c2c1=O [Compound I-62, 2-(4-(2-(3-(4-amino-2-(6-methyl-7-oxo-6,7-dihydro-1H-pyrrolo[2,3-c]pyridin-4-yl)phenoxy)phenoxy)ethoxy)piperidin-1-yl)-N-((1r, 3r)-3-(3-chloro-4-cyanophenoxy)-2,2,4,4-tetramethylcyclobutyl)pyrimidine-5-carboxamide] showed a Kd (BRD4-BD2) of over 2500 nM and a GI50 (T47D cells; Homo sapiens) of 500 to 1500 nM.

CCS(=O)(=O)Nc1ccc(Oc2cccc(OCCOC3CCN(c4ncc(C(=O)N[C@H]5C(C)(C)[C@H](Oc6ccc(C#N)c(Cl)c6)C5(C)C)cn4)CC3)c2)c(-c2cn(C)c(=O)c3c2ccn3C)c1 [Compound I-121] was tested, and the Kd (BRD4-BD2) was over 2500 nM and the GI50 (T47D cells; Homo sapiens) was 500 to 1500 nM.

Cn1cc(-c2cc(C(C)(C)O)ccc2Oc2cccc(N3CC(CC4CCN(c5ncc(C(=O)N[C@H]6C(C)(C)[C@H](Oc7ccc(C#N)c(Cl)c7)C6(C)C)cn5)CC4)C3)c2F)c2cc[nH]c2c1=O [Compound I-196] showed a Kd (BRD4-BD2) of under 50 nM and a GI50 (T47D cells) of 500 to 1500 nM.

With Cc1ccc(CCCOC2CCN(c3ncc(C(=O)N[C@H]4C(C)(C)[C@H](Oc5ccc(C#N)c(Cl)c5)C4(C)C)cn3)CC2)cc1Oc1ccc(C(C)(C)O)cc1-c1cn(C)c(=O)c2[nH]ccc12 [Compound I-192] the Kd (BRD4-BD2) was 50 to 500 nM and the GI50 (T47D cells; Homo sapiens) was 500 to 1500 nM.

CCS(=O)(=O)Nc1ccc(Oc2ccc(F)c(OCCOC3CCN(c4ncc(C(=O)N[C@H]5C(C)(C)[C@H](Oc6ccc(C#N)c(Cl)c6)C5(C)C)cn4)CC3)c2F)c(-c2cn(C)c(=O)c3[nH]ccc23)c1 [Compound I-65] gave a Kd (BRD4-BD2) of under 50 nM and a GI50 (T47D cells; Homo sapiens) of under 500 nM.

Molecule CCS(=O)(=O)Nc1ccc(Oc2cccc(COC3CCN(c4ncc(C(=O)N[C@H]5C(C)(C)[C@H](Oc6ccc(C#N)c(Cl)c6)C5(C)C)cn4)CC3)c2)c(-c2cn(C)c(=O)c3[nH]ccc23)c1 [Compound I-18, N-((1r, 3r)-3-(3-chloro-4-cyanophenoxy)-2,2,4,4-tetramethylcyclobutyl)-2-(4-((3-(4-(ethylsulfonamido)-2-(6-methyl-7-oxo-6,7-dihydro-1H-pyrrolo[2,3-c]pyridin-4-yl)phenoxy)benzyl)oxy)piperidin-1-yl)pyrimidine-5-carboxamide] has a Kd (BRD4-BD2) of under 50 nM and a GI50 (T47D cells; Homo sapiens) of under 500 nM.

Cn1cc(-c2cc(C(C)(C)O)ccc2Oc2cccc(OCCN3CCN(c4ncc(C(=O)N[C@H]5C(C)(C)[C@H](Oc6ccc(C#N)c(Cl)c6)C5(C)C)cn4)CC3)c2)c2cc[nH]c2c1=O [Compound I-96] showed a Kd (BRD4-BD2) of 50 to 500 nM and a GI50 (T47D cells; Homo sapiens) of 500 to 1500 nM.

— patent US20250388605A1, “HETEROBIFUNCTIONAL COMPOUNDS AND METHODS OF TREATING DISEASE” (Halda Therapeutics OpCo, Inc., priority 2022, published 2025)
